Results published in PubChem BioAssay AID192 (DTP/NCI, 2004).
“And” between values parts separate entries of the source, which are not always exact repeats. Identical values can stand only once. Inconclusive results and toxic doses are left out.

Test system: BDF1 mice, B16 melanoma ip, median survival T/C
Assay: NCI In Vivo Anticancer Drug Screen. Data for tumor model B16 Melanoma (intraperitoneal) in B6D2F1 (BDF1) mice
Settings: endpoint: median survival time, higher = longer survival
In short: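 Read-out: survival or tumor size, given as treated/control ratio. Controls received vehicle only; animals bore transplantable tumors.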

[1] = dose: 12.5 mg/kg/injection, schedule: Q01DX009 (ip), vehicle: Klucel (hydroxypropylcellulose) (HPC)
[2] = dose: 25.0 mg/kg/injection, schedule: Q01DX009 (ip), vehicle: Klucel (hydroxypropylcellulose) (HPC)
[3] = dose: 50.0 mg/kg/injection, schedule: Q01DX009 (ip), vehicle: Klucel (hydroxypropylcellulose) (HPC)
[4] = dose: 100.0 mg/kg/injection, schedule: Q01DX009 (ip), vehicle: Klucel (hydroxypropylcellulose) (HPC)
[5] = dose: 200.0 mg/kg/injection, schedule: Q01DX009 (ip), vehicle: Klucel (hydroxypropylcellulose) (HPC)
[6] = dose: 50.0 mg/kg/injection, schedule: Q01DX009 (ip), vehicle: saline with Tween-80
[7] = dose: 100.0 mg/kg/injection, schedule: Q01DX009 (ip), vehicle: saline with Tween-80
[8] = dose: 200.0 mg/kg/injection, schedule: Q01DX009 (ip), vehicle: saline with Tween-80
[9] = dose: 400.0 mg/kg/injection, schedule: Q01DX009 (ip), vehicle: saline with Tween-80
[10] = dose: 400.0 mg/kg/injection, schedule: Q01DX009 (ip), vehicle: Klucel (hydroxypropylcellulose) (HPC)
[11] = dose: 25.0 mg/kg/injection, schedule: Q01DX009 (ip), vehicle: saline with Tween-80
[12] = dose: 0.75 mg/kg/injection, schedule: Q01DX009 (ip), vehicle: Klucel (hydroxypropylcellulose) (HPC)
[13] = dose: 1.5 mg/kg/injection, schedule: Q01DX009 (ip), vehicle: Klucel (hydroxypropylcellulose) (HPC)
[14] = dose: 3.0 mg/kg/injection, schedule: Q01DX009 (ip), vehicle: Klucel (hydroxypropylcellulose) (HPC)
[15] = dose: 3.12 mg/kg/injection, schedule: Q01DX009 (ip), vehicle: Klucel (hydroxypropylcellulose) (HPC)
[16] = dose: 6.25 mg/kg/injection, schedule: Q01DX009 (ip), vehicle: Klucel (hydroxypropylcellulose) (HPC)
[17] = dose: 25.0 mg/kg/injection, schedule: Q04DX003 (ip), vehicle: Klucel (hydroxypropylcellulose) (HPC)
[18] = dose: 50.0 mg/kg/injection, schedule: Q04DX003 (ip), vehicle: Klucel (hydroxypropylcellulose) (HPC)
[19] = dose: 25.0 mg/kg/injection, schedule: Q01DX009 (ip), vehicle: saline
[20] = dose: 50.0 mg/kg/injection, schedule: Q01DX009 (ip), vehicle: saline
[21] = dose: 100.0 mg/kg/injection, schedule: Q01DX009 (ip), vehicle: saline

Compound: CCCCCCCCCCCC(=O)Nc1ccccc1
- T/C [1]: 105 % of control
- T/C [2]: 90 % of control
- T/C [3]: 92 % of control

Compound: O=C(CN1CCCCC1)Nc1cccc(C(F)(F)F)c1
- T/C [4]: 87 % of control
- T/C [5]: 89 % of control

Compound: CNCCNc1ccc(NCCNC)c2c1C(=O)c1ccccc1C2=O
- T/C (dose: 2.0 mg/kg/injection, schedule: Q01DX009 (ip), vehicle: acid diluted with saline): 156 % of control
- T/C (dose: 4.0 mg/kg/injection, schedule: Q01DX009 (ip), vehicle: acid diluted with saline): 230 % of control
- T/C (dose: 8.0 mg/kg/injection, schedule: Q01DX009 (ip), vehicle: acid diluted with saline): 231 % of control

Compound: Cc1ccc(S(=O)(=O)Oc2ccc(-c3ccc(Br)cc3)cc2)cc1
- T/C [6]: 96 % of control
- T/C [7]: 93 % of control
- T/C [8]: 86 % of control
- T/C [9]: 91 % of control

Compound: CCOC(=O)NNC(=O)c1ccccc1N(C)C
- T/C [4]: 116 % of control
- T/C [5]: 104 % of control
- T/C [10]: 92 % of control

Compound: COc1ccc2c(c1)N(CCCN(C)C)c1ccccc1S2
- T/C (dose: 2.34 mg/kg/injection, schedule: Q01DX009 (ip), vehicle: saline): 102 % of control
- T/C (dose: 4.68 mg/kg/injection, schedule: Q01DX009 (ip), vehicle: saline): 110 % of control
- T/C (dose: 18.75 mg/kg/injection, schedule: Q01DX009 (ip), vehicle: saline): 102 % of control
- T/C (dose: 37.5 mg/kg/injection, schedule: Q01DX009 (ip), vehicle: saline): 110 % of control

Compound: Cc1n(Cc2ccccc2)c2c([n+]1C)C(=O)c1ccccc1C2=O
- T/C (dose: 0.13 mg/kg/injection, schedule: Q01DX009 (ip), vehicle: saline): 95 % of control
- T/C (dose: 0.25 mg/kg/injection, schedule: Q01DX009 (ip), vehicle: saline): 95 % of control
- T/C (dose: 0.5 mg/kg/injection, schedule: Q01DX009 (ip), vehicle: saline): 95 % of control
- T/C (dose: 1.0 mg/kg/injection, schedule: Q01DX009 (ip), vehicle: saline): 87 % of control

Compound: C=C1CCN(c2ccccc2)C1=O
- T/C (dose: 4.0 mg/kg/injection, schedule: Q01DX009 (ip), vehicle: saline + alcohol): 96 % of control
- T/C (dose: 8.0 mg/kg/injection, schedule: Q01DX009 (ip), vehicle: saline + alcohol): 116 % of control
- T/C (dose: 16.0 mg/kg/injection, schedule: Q01DX009 (ip), vehicle: saline + alcohol): 112 % of control
- T/C (dose: 64.0 mg/kg/injection, schedule: Q01DX009 (ip), vehicle: saline + alcohol): 107 % of control

Compound: CCC1(C)CC(=O)NC(=O)C1
- T/C (dose: 0.93 mg/kg/injection, schedule: Q01DX009 (ip), vehicle: saline): 110 % of control
- T/C (dose: 1.87 mg/kg/injection, schedule: Q01DX009 (ip), vehicle: saline): 97 % of control
- T/C (dose: 3.75 mg/kg/injection, schedule: Q01DX009 (ip), vehicle: saline): 110 % of control
- T/C (dose: 7.5 mg/kg/injection, schedule: Q01DX009 (ip), vehicle: saline): 107 % of control
- T/C (dose: 15.0 mg/kg/injection, schedule: Q01DX009 (ip), vehicle: saline): 107 % of control

Compound: CN1CCN(c2ccc(Cl)cc2)CC1
- T/C [2]: 100 % of control
- T/C [3]: 100 % of control

Compound: Cc1cc2nc3[nH]c4ccccc4c3nc2cc1C
- T/C [11]: 97 % of control
- T/C [6]: 97 % of control
- T/C [8]: 86 % of control

Compound: C/C=C(\C)C(=O)OC1C(C)=C2C(C1OC(=O)CCCC)C(C)(OC(C)=O)CC(OC(=O)CCCC)C1(O)C2OC(=O)C1(C)O (stereo unspecified)
- T/C (dose: 0.37 mg/kg/injection, schedule: Q01DX009 (ip), vehicle: Klucel (hydroxypropylcellulose) (HPC)): 90 % of control
- T/C [12]: 101 % of control
- T/C [13]: 106 % of control
- T/C [14]: 89 % of control

Compound: CCc1cc(C)cc(OC(=O)Nc2cccc(Cl)c2)c1
- T/C [7]: 90 % of control
- T/C [8]: 92 % of control
- T/C [9]: 86 % of control

Compound: CCOC(=O)C(=CNc1cccc(N)n1)C(=O)OCC
- T/C [4]: 107 % of control
- T/C [5]: 111 % of control
- T/C [10]: 94 % of control

Compound: NC(=S)N/N=C/c1ccc2c(c1)OCO2
- T/C (dose: 50.0 mg/kg/injection, schedule: Q04DX003 (ip), vehicle: saline with Tween-80): 106 % of control
- T/C (dose: 100.0 mg/kg/injection, schedule: Q04DX003 (ip), vehicle: saline with Tween-80): 106 % of control
- T/C (dose: 200.0 mg/kg/injection, schedule: Q04DX003 (ip), vehicle: saline with Tween-80): 110 % of control

Compound: CN(C(=S)S(=O)(=O)C12CC3CC(CC(C3)C1)C2)c1ccccc1
- T/C [15]: 98 % of control
- T/C [16]: 98 % of control
- T/C [1]: 95 % of control
- T/C [2]: 95 % of control
- T/C [3]: 88 % of control

Compound: N#Cc1nc2ccccc2nc1C#N
- T/C [1]: 110 % of control
- T/C (dose: 12.5 mg/kg/injection, schedule: Q04DX003 (ip), vehicle: Klucel (hydroxypropylcellulose) (HPC)): 97 % of control
- T/C [17]: 102 % of control
- T/C [18]: 95 % of control

Compound: Cc1ccc(Cl)cc1NC(=O)CCl
- T/C [11]: 102 % of control
- T/C [6]: 100 % of control
- T/C [7]: 102 % of control

Compound: CC1(C)CC(C)(c2ccc(O)cc2)c2ccccc2O1 (stereo unspecified)
- T/C [7]: 100 % of control
- T/C [8]: 86 % of control
- T/C [9]: 86 % of control

Compound: CC1=C(c2cc3ccccc3c3ccccc23)CCCC1
- T/C [7]: 90 % of control
- T/C [8]: 88 % of control
- T/C [9]: 91 % of control

Compound: CN(Cc1ccccc1)Cc1ccccc1
- T/C [2]: 96 % of control
- T/C [17]: 100 % of control
- T/C [3]: 100 % of control
- T/C [18]: 97 % of control
- T/C [4]: 100 % of control
- T/C (dose: 100.0 mg/kg/injection, schedule: Q04DX003 (ip), vehicle: Klucel (hydroxypropylcellulose) (HPC)): 97 % of control

Compound: CC(=O)OCC1OC(OC(C)=O)C(NC(=O)N(CCCl)N=O)C(OC(C)=O)C1OC(C)=O (stereo unspecified)
- T/C [12]: 162 % of control
- T/C (dose: 1.0 mg/kg/injection, schedule: Q01DX009 (ip), vehicle: Klucel (hydroxypropylcellulose) (HPC)): 152 % of control
- T/C [13]: 180 % of control
- T/C (dose: 2.0 mg/kg/injection, schedule: Q01DX009 (ip), vehicle: Klucel (hydroxypropylcellulose) (HPC)): 188 % of control and 287 % of control
- T/C [14]: 208 % of control
- T/C (dose: 4.0 mg/kg/injection, schedule: Q01DX009 (ip), vehicle: Klucel (hydroxypropylcellulose) (HPC)): 232 % of control

Compound: CN(C)c1ccc2c(N(C)C)cc(N(C)C)nc2c1
- T/C [15]: 99 % of control
- T/C [16]: 107 % of control
- T/C [1]: 97 % of control
- T/C [2]: 108 % of control
- T/C [3]: 102 % of control

Compound: COc1cc([NH-])c([NH-])cc1OC.[Cl][Pt+2][Cl]
- T/C (dose: 10.0 mg/kg/injection, schedule: Q01DX009 (ip), vehicle: saline with Tween-80): 97 % of control
- T/C (dose: 20.0 mg/kg/injection, schedule: Q01DX009 (ip), vehicle: saline with Tween-80): 104 % of control
- T/C (dose: 40.0 mg/kg/injection, schedule: Q01DX009 (ip), vehicle: saline with Tween-80): 103 % of control
- T/C (dose: 80.0 mg/kg/injection, schedule: Q01DX009 (ip), vehicle: saline with Tween-80): 104 % of control
- T/C (dose: 160.0 mg/kg/injection, schedule: Q01DX009 (ip), vehicle: saline with Tween-80): 94 % of control

Compound: O=c1[nH]cnc2nc(/N=N/SCCO)[nH]c12
- T/C [2]: 100 % of control
- T/C [3]: 103 % of control
- T/C [4]: 101 % of control
- T/C [5]: 98 % of control

Compound: CC(=O)OC(C)c1ccccc1 (stereo unspecified)
- T/C [4]: 93 % of control
- T/C [5]: 96 % of control

Compound: CCOC(=O)CC(SP(=S)(OC)OC)C(=O)OCC (stereo unspecified)
- T/C [11]: 94 % of control and 107 % of control
- T/C [19]: 106 % of control
- T/C [6]: 96 % of control and 97 % of control
- T/C [20]: 95 % of control
- T/C [7]: 91 % of control and 98 % of control
- T/C [21]: 101 % of control
- T/C [8]: 88 % of control and 96 % of control
- T/C (dose: 200.0 mg/kg/injection, schedule: Q01DX009 (ip), vehicle: saline): 101 % of control

Compound: O=C1NC2(CCCCC2)NC12CCCCC2
- T/C [19]: 102 % of control
- T/C [20]: 97 % of control
- T/C [21]: 97 % of control
- T/C (dose: 150.0 mg/kg/injection, schedule: Q01DX009 (ip), vehicle: saline): 94 % of control
- T/C (dose: 225.0 mg/kg/injection, schedule: Q01DX009 (ip), vehicle: saline): 86 % of control

Compound: CCC(=O)Oc1ccc(/C=N/NC(N)=S)nc1
- T/C [20]: 153 % of control
- T/C [21]: 121 % of control
